# According to patent publication US7030150B2, “Benzimidazole compounds and antiviral uses thereof” (Trimeris, Inc., priority 2001, dated 2006):
# Test system: poliovirus type 1
# Settings: monkey kidney and HeLa cell cultures; cited from earlier work
row,SMILES,inhibition of poliovirus type 1
1,OC(c1ccccc1)c1nc2ccccc2[nH]1 (stereo not drawn) [2-(α-hydroxybenzyl)benzimidazole],inhibits

# Test system: rhinoviruses
# Settings: cited from earlier work
row,SMILES,inhibition of the cytopathic effect [%]
1,"COc1ccc2[nH]c(C(O)C(O)c3nc4cc(OC)ccc4[nH]3)nc2c1 (stereo not shown) [1,2-(5-methoxy-2-benzimidazole)-1,2-ethanediol]",100

# Test system: uninfected Hep2 cells
# Settings: not given
row,SMILES,CC50 [µM]
1,CC(C)N(Cc1nc2ccccc2n1Cc1ccc(S(C)(=O)=O)cc1)C1CCCCC1 [compound 13],≥ 100
2,COc1cc(CNCc2nc3ccccc3n2Cc2nc3ccccc3[nH]2)cc(OC)c1 [compound 122],≥ 100
3,c1ccc2[nH]c(Cn3c(CNCCCn4ccnc4)nc4ccccc43)nc2c1 [compound 136],≥ 100
4,C#CCN(C)Cc1nc2ccccc2n1Cc1nc2ccccc2[nH]1 [compound 90],≥ 100
5,CCCN(Cc1nc2ccccc2n1Cc1ccc(S(C)(=O)=O)cc1)CC1CC1 [compound 26],97
6,CCCCN(CCCC)CCCNCc1nc2ccccc2n1Cc1nc2ccccc2[nH]1 [compound 100],9.3
7,c1ccc(Oc2cccc(Cn3c(CN4CCCCC4)nc4ccccc43)c2)cc1 [compound 74],10
8,c1ccc2[nH]c(Cn3c(CNCc4ccc5c(c4)OCO5)nc4ccccc43)nc2c1 [compound 169],≥ 100
9,O=c1[nH]ccn1CCNCc1nc2ccccc2n1Cc1nc2ccccc2[nH]1 [compound 166],≥ 100
10,c1ccc(CN2CCC(NCc3nc4ccccc4n3Cc3nc4ccccc4[nH]3)CC2)cc1 [compound 137],95
11,CCCN(Cc1nc2ccccc2n1Cc1cc(F)cc2c1OCOC2)CC1CC1 [compound 24],82
12,O=C1C(=O)N(Cc2nc3ccccc3n2Cc2nc3ccccc3[nH]2)c2ccc(F)cc21 [compound 237],65
13,c1ccc(CN2CCC(NCc3nc4ccccc4n3Cc3nc4ccccc4[nH]3)C2)cc1 (stereo not shown) [compound 149],39
14,Clc1ccc(CNCc2nc3ccccc3n2Cc2nc3ccccc3[nH]2)cc1Cl [compound 171],58
15,CN(C)CCCNCc1nc2ccccc2n1Cc1nc2ccccc2[nH]1 [compound 174],≥ 100
16,CCCN(Cc1nc2ccccc2n1Cc1c2ccccc2nc2ccccc12)CC1CC1 [compound 23],≥ 101
17,c1ccc2[nH]c(Cn3c(CN4CCCC4)nc4ccccc43)nc2c1 [compound 199],≥ 100
18,COc1ccc(CCNCc2nc3ccccc3n2Cc2nc3ccccc3[nH]2)cc1 [compound 120],≥ 100
19,c1ccc2c(Cn3c(CN4CCCCC4)nc4ccccc43)c3ccccc3nc2c1 [compound 72],≥ 100

row,SMILES,CC50 [µM]
1,COc1ccc(N2CCN(Cc3nc4ccccc4n3Cc3nc4ccccc4[nH]3)CC2)cc1 [compound 197],≥ 100
2,c1ccc(CC2=NCCN2Cc2nc3ccccc3n2Cc2nc3ccccc3[nH]2)cc1 [compound 204],≥ 100
3,CC(C)N(Cc1nc2ccccc2n1Cc1cccc(Oc2ccccc2)c1)C1CCCCC1 [compound 12],≥ 100
4,c1ccc(CC(NCc2nc3ccccc3n2Cc2nc3ccccc3[nH]2)c2ccccc2)cc1 (stereo not shown) [compound 168],≥ 100
5,CCOCCCNCc1nc2ccccc2n1Cc1nc2ccccc2[nH]1 [compound 159],≥ 100
6,ClCc1nc2ccccc2n1Cc1nc2ccccc2[nH]1 [compound 1],50
7,CC(C)N(Cc1nc2ccccc2n1Cc1c2ccccc2nc2ccccc12)C1CCCCC1 [compound 10],≥ 100
8,Fc1cccc(F)c1CNCc1nc2ccccc2n1Cc1nc2ccccc2[nH]1 [compound 161],≥ 100
9,OCCC1CCCCN1Cc1nc2ccccc2n1Cc1nc2ccccc2[nH]1 (stereo not shown) [compound 213],≥ 100
10,Fc1ccc(CNCc2nc3ccccc3n2Cc2nc3ccccc3[nH]2)cc1 [compound 126],≥ 100
11,CCOCCCNCc1nc2ccccc2n1Cc1nc2ccccc2[nH]1 [compound 182],≥ 100
12,CSc1ccc(Cn2c(CN3CCCCC3)nc3ccccc32)cc1 [compound 76],11
13,C#CCCN(C)Cc1nc2ccccc2n1Cc1nc2ccccc2[nH]1 [compound 94],16
14,CCNCc1nc2ccccc2n1Cc1nc2ccccc2[nH]1 [compound 123],≥ 100
15,FC(F)(F)c1ccc(N2CCN(Cc3nc4ccccc4n3Cc3nc4ccccc4[nH]3)CC2)nc1 [compound 196],78
16,O=C1C(=O)N(Cc2nc3ccccc3n2Cc2nc3ccccc3[nH]2)c2ccc(Br)cc21 [compound 235],≥ 100
17,CC(C)N(C)Cc1nc2ccccc2n1Cc1nc2ccccc2[nH]1 [compound 82],25
18,OCC1CCCCN1Cc1nc2ccccc2n1Cc1nc2ccccc2[nH]1 (stereo not shown) [compound 210],8
19,Fc1ccc(CCNCc2nc3ccccc3n2Cc2nc3ccccc3[nH]2)cc1 [compound 167],≥ 100

row,SMILES,CC50 [µM]
1,CN1CCC(N(C)Cc2nc3ccccc3n2Cc2nc3ccccc3[nH]2)CC1 [compound 80],58
2,CCCN(Cc1nc2ccccc2n1Cc1ccc2ccccc2n1)CC1CC1 [compound 20],50
3,c1ccc2[nH]c(Cn3c(CNCCCn4ccnc4)nc4ccccc43)nc2c1 [compound 105],26
4,c1ccc2[nH]c(Cn3c(CN4CCCCCCC4)nc4ccccc43)nc2c1 [compound 233],≥ 100
5,Clc1ccccc1CNCc1nc2ccccc2n1Cc1nc2ccccc2[nH]1 [compound 150],≥ 100
6,COc1cccc(CCNCc2nc3ccccc3n2Cc2nc3ccccc3[nH]2)c1 [compound 135],≥ 100
7,CS(=O)(=O)c1ccc(Cn2c(CN3CCCCC3)nc3ccccc32)cc1 [compound 60],≥ 100
8,Oc1ccc(N2CCN(Cc3nc4ccccc4n3Cc3nc4ccccc4[nH]3)CC2)cc1 [compound 220],≥ 100
9,c1csc(CNCc2nc3ccccc3n2Cc2nc3ccccc3[nH]2)c1 [compound 142],≥ 100
10,N=C(N)NCc1nc2ccccc2n1Cc1nc2ccccc2[nH]1 [compound 104],≥ 100
11,CCCN(Cc1nc2ccccc2n1Cc1cccc(Oc2ccccc2)c1)CC1CC1 [compound 25],≥ 101
12,CN(C)CCN(C)Cc1nc2ccccc2n1Cc1nc2ccccc2[nH]1 [compound 84],≥ 100
13,c1ccc2[nH]c(Cn3c(CNCC4CCCO4)nc4ccccc43)nc2c1 (stereo not shown) [compound 170],≥ 100
14,COc1cc2c(cc1OC)C(CC#N)N(Cc1nc3ccccc3n1Cc1nc3ccccc3[nH]1)CC2 (stereo not shown) [compound 223],≥ 100
15,O=C(c1ccco1)N1CCN(Cc2nc3ccccc3n2Cc2nc3ccccc3[nH]2)CC1 [compound 198],≥ 100
16,O=C1CCCN1CCCNCc1nc2ccccc2n1Cc1nc2ccccc2[nH]1 [compound 158],≥ 100
17,COc1ccc(CNCc2nc3ccccc3n2Cc2nc3ccccc3[nH]2)cc1 [compound 146],≥ 100
18,C1=CCN(Cc2nc3ccccc3n2Cc2nc3ccccc3[nH]2)C1 [compound 201],19

# Test system: picornaviruses
# Settings: cited from earlier work
row,SMILES,antiviral activity against an assortment of picornaviruses
1,c1ccc2[nH]cnc2c1 [benzimidazole],active
2,"OC(c1nc2ccccc2[nH]1)C(O)c1nc2ccccc2[nH]1 (stereo not shown) [1,2-bis(2-benzimidazole)-1,2-ethanediol]",active
3,OC(c1ccccc1)c1nc2ccccc2[nH]1 (stereo not drawn) [2-(α-hydroxybenzyl)benzimidazole],active
